Results from patent US5349063A, “Pancreatic imaging agents” (priority 1993, dated 1994).

Columns and labels:
[1] = Pancreas uptake and pancreas to liver ratio in Balb/c mice (radioiodine biodistribution); type: in vivo; details: for P/L (percent dose in pancreas / percent dose in liver) / Pancreas uptake (mean percent administered dose per organ): I-125 label, 20 μg i.v., male Balb/c mice, mean ± standard deviation; for pancreas/liver ratios compared with HIPDM: all time periods from 30 minutes to 24 hours
Method: The pancreatic uptake and pancreas/liver ratio of I-125 ERC 9 (prepared as in Examples 1 and 2) and I-125-HIPDM were compared in mice. Male Balb/c mice were injected via the tail vein with I-125 ERC 9 or I-125 HIPDM (20 μg, 0.01 MBq, in 0.1 ml). At specific time periods from 5 minutes to 24 hours after administration, six mice from each group were killed by CO2 asphyxiation. Blood samples were taken and various organs (including the pancreas and liver) were removed. The radioiodine uptake in various organs was determined by counting in a gamma spectrometric detector. The amount of radioactivity in each organ or tissue was compared to that in a standard of the injected dose. The percent uptake was calculated for each organ of each animal. The pancreas to liver ratio was calculated by dividing the percent uptake in the pancreas by the percent uptake in the liver. The mean uptake in the organs and the mean pancreas/liver ratio was calculated for the animals at each time period.
The pancreatic uptake and pancreas/liver ratios of I-125 ERC 46 and I-125 HIPDM were compared in Balb/c mice as described in Example 6.
The pancreas uptake and pancreas/liver ratios of I-125 ERC 90 and I-125 HIPDM were compared in Balb/c mice as described in Example 6.
The pancreas uptakes and pancreas/liver ratios of I-125 ERC 94 and I-125 HIPDM were compared in Balb/c mice as described in Example 6.

Toxicity in mice = type: in vivo, Balb/c mice
Method: It was assumed that the maximum human dose of ERC 9 would be 2 mg per 50 kg (or […]) body weight. Mouse studies were done at a rate of 500 times the maximum human dose on a weight basis. Five Balb/c male and five Balb/c female mice were injected via the tail vein with 0,005 ml per gram body weight of a solution of ERC 9 in water (4 mg per ml) on each of three occasions one day apart. The animals were maintained for 30 days.

[2] = Human radiation dosimetry of I-123 ERC 9 estimated from tissue distribution in mice (MIRD); design: species or system human (from Balb/c mouse data); details: MIRD calculation from mouse tissue distribution
Method: The human radiation dose from I-123 ERC 9 was estimated from tissue distribution data in mice.
Male Balb/c mice were injected via the tail vein with I-125 ERC 9 (20 μg, 0.01 MBq, in 0.1 ml). At specific time periods from 5 minutes to 24 hours after administration, six mice were killed by CO2 asphyxiation. Blood samples were taken and various organs were removed. The radioiodine uptake in various organs and tissues was determined by counting in a gamma spectrometric detector. The amount of radioactivity in each organ or tissue was compared to that in a standard of the injected dose. The percent uptake was calculated for each organ of each animal. The mean percent uptake in the organs was calculated for the animals at each time period.
The mean uptakes for each of the organs and tissues were plotted versus time on semilogarithmic paper. From these plots, the uptake and clearance half times for each of the organs and tissues were calculated.
Using these values and the MIRD (Society of Nuclear Medicine) method of dosimetry calculations, the human radiation doses from I-123 were calculated.

[3] = Pancreatic imaging in human volunteers (planar and SPECT gamma camera); type: in vivo
Method: Imaging studies have been done in two human volunteers using I-123 ERC 9.
I-123 ERC 9 (185 MBq, 2 mg), prepared as in Example 2, was injected intravenously into the two volunteers. Using a gamma camera with SPECT (Single Photon Emission Computed Tomography) capability, planar images were obtained at 30 minutes, 1.5 hours, 3 hours and 24 hours after injection. SPECT images were obtained at 3-4 hours after injection.

[4] = cited from earlier work
[5] = cited from earlier work; remark: listed apart in the source
[6] = rats and mice; Yamamoto et al.; cited from earlier work
[7] = 4 and 24 hours after administration
[8] = 30 minutes after administration
[9] = 500 times maximum human dose, i.v., three occasions one day apart, maintained 30 days
[10] = I-123 ERC 9, 185 MBq, 2 mg i.v.
[11] = planar and SPECT images, 3-4 hours
[12] = human clinical studies, Yamamoto et al.

| pancreas uptake compared with HIPDM [1, 7] | P/L (percent dose in pancreas / percent dose in liver) ([1]; 5 minutes after administration) | P/L (percent dose in pancreas / percent dose in liver) [1, 8] | P/L (percent dose in pancreas / percent dose in liver) ([1]; 1 hour after administration) | P/L (percent dose in pancreas / percent dose in liver) ([1]; 4 hours after administration) | P/L (percent dose in pancreas / percent dose in liver) ([1]; 24 hours after administration) | pancreas/liver ratios compared with HIPDM [1] | pancreas uptake compared with HIPDM ([1]; early time periods) | Compound | Pancreas uptake (mean percent administered dose per organ) ([1]; 5 minutes after administration) | Pancreas uptake (mean percent administered dose per organ) [1, 8] | Pancreas uptake (mean percent administered dose per organ) ([1]; 1 hour after administration) | Pancreas uptake (mean percent administered dose per organ) ([1]; 4 hours after administration) | Pancreas uptake (mean percent administered dose per organ) ([1]; 24 hours after administration) | further results |
| --- | --- | --- | --- | --- | --- | --- | --- | --- | --- | --- | --- | --- | --- | --- |
| higher pancreas uptakes than did HIPDM | 0.22 ± 0.04 | 0.50 ± 0.11 | 0.80 ± 0.18 | 2.12 ± 0.35 | 6.70 ± 1.42 | significantly higher | lower | Cc1cc([125I])cc(CN(C)CCCN2CCCCC2)c1O [ERC 90, N[3(1-piperidino)propyl]-N-methyl-2-hydroxy-3-methyl-5-iodobenzylamine] | 1.32 ± 0.34 percent administered dose per | 2.73 ± 0.59 percent administered dose per | 3.62 ± 0.84 percent administered dose per | 5.35 ± 0.88 percent administered dose per | 5.59 ± 0.60 percent administered dose per | – |
| higher pancreas uptake than did HIPDM | 0.22 ± 0.04 | 0.54 ± 0.09 | 0.78 ± 0.20 | 2.11 ± 0.32 | 7.47 ± 1.40 | significantly higher | lower | Cc1cc([125I])cc(CN(C)CCCN2CCCC2)c1O [ERC 46, N[3(1-Pyrrolidino)propyl]-N-methyl-2-hydroxy-3-methyl-5-iodobenzylamine] | 1.34 ± 0.32 percent administered dose per | 4.14 ± 0.68 percent administered dose per | 3.74 ± 0.69 percent administered dose per | 5.95 ± 0.78 percent administered dose per | 4.91 ± 0.43 percent administered dose per | – |
| – | – | – | – | – | – | – | – | C[75Se]CCC(N)C(=O)O (stereo not shown) [Se-75 selenomethionine] | – | – | – | – | – | pancreatic visualisation ([4]; in vivo): inconsistency of pancreatic visualisation; patient radiation dose ([4]; selenium-75): high patient radiation dose |
| – | 0.22 ± 0.04 | 0.61 ± 0.06 | 0.67 ± 0.19 | 1.61 ± 0.26 | 4.03 ± 1.76 | significantly higher | – | CCN(CC)CCCN(C)Cc1cc([125I])cc(C)c1O [ERC 94, N[3(diethylamino)propyl]-N-methyl-2-hydroxy-3-methyl-5-iodobenzylamine] | 1.56 ± 0.26 percent administered dose per | 2.86 ± 0.48 percent administered dose per | 3.45 ± 0.90 percent administered dose per | 4.65 ± 0.67 percent administered dose per | 3.76 ± 1.62 percent administered dose per | pancreas uptakes compared with HIPDM ([1]; all time periods studied except 24 hours): lower than those of HIPDM |
| – | 0.21 ± 0.03 | 0.32 ± 0.04 | 0.46 ± 0.06 | 0.95 ± 0.14 | 1.18 ± 0.47 | – | – | Cc1cc([125I])cc(CN(C)CCCN(C)C)c1O [HIPDM, N,N,N'-trimethyl-N'[2-hydroxy-3-methyl-5-iodobenzyl]-1,3-propanediamine, reference compound] | – | – | – | – | – | differentiation between pancreatic and liver retention [5, 12]: difficult; pancreas/liver ratios [5, 12]: not optimal for clinical use; suitability for clinical use ([5]; human): unsatisfactory for clinical use; localisation in the pancreas [6]: some localisation of HIPDM in the pancreas |

| Compound | pancreas uptake compared with HIPDM [1, 7] | P/L (percent dose in pancreas / percent dose in liver) ([1]; 5 minutes after administration) | P/L (percent dose in pancreas / percent dose in liver) [1, 8] | P/L (percent dose in pancreas / percent dose in liver) ([1]; 1 hour after administration) | P/L (percent dose in pancreas / percent dose in liver) ([1]; 4 hours after administration) | P/L (percent dose in pancreas / percent dose in liver) ([1]; 24 hours after administration) | pancreas/liver ratios compared with HIPDM [1] | pancreas uptake compared with HIPDM ([1]; early time periods) | Pancreas uptake (mean percent administered dose per organ) ([1]; 5 minutes after administration) | Pancreas uptake (mean percent administered dose per organ) [1, 8] | Pancreas uptake (mean percent administered dose per organ) ([1]; 1 hour after administration) | Pancreas uptake (mean percent administered dose per organ) ([1]; 4 hours after administration) | Pancreas uptake (mean percent administered dose per organ) ([1]; 24 hours after administration) | further results |
| --- | --- | --- | --- | --- | --- | --- | --- | --- | --- | --- | --- | --- | --- | --- |
| Cc1cc([125I])cc(CN(C)CCCN2CCOCC2)c1O [ERC 9, N[3(4-morpholino)propyl]-N-methyl-2-hydroxy-3-methyl-5-iodobenzylamine] | – | 0.40 ± 0.10 | 0.61 ± 0.05 | 0.66 ± 0.14 | 2.02 ± 0.67 | 2.54 ± 0.34 | – | – | 2.08 ± 0.90 percent administered dose per organ | 4.52 ± 0.75 percent administered dose per organ | 4.79 ± 0.70 percent administered dose per organ | 6.60 ± 1.84 percent administered dose per organ | 3.30 ± 0.53 percent administered dose per organ | histological examination of various organs and tissues (Toxicity in mice; [9]): no changes that could be attributed to chemical toxicity; immediate or delayed toxicity (Toxicity in mice; [9]): no indication of immediate or delayed toxicity; chemical toxicity (Toxicity in mice; animal studies): low chemical toxicity; human radiation dose to the pancreas [2]: approximately 15.5 mGy per 111 MBq; mean pancreas/liver ratio compared with HIPDM ([1]; at all time intervals): greater than that for HIPDM; visualization of the pancreas ([3]; 24 hours after injection): less than optimal although still present; quality of pancreatic images ([3]; FIGS. 2 and 3, human volunteers): High quality pancreatic images; time at which uptake of the radiotracer was seen [3, 10]: ≤ 30 min; time of optimum pancreatic uptake and pancreas/liver ratio [3, 10]: 3 to 4 h; accumulation of radiolabel in pancreas [3, 11]: high degree of accumulation of radiolabel in normal human pancreas; discrimination of pancreas from other abdominal organs [3, 11]: good discrimination of pancreas from other abdominal organs |
